Results taken from US20230085307A1, “PYRIDAZINONE COMPOUND AND HERBICIDE” (NISSAN CHEMICAL CORPORATION, priority 2019, published 2023).

How the values were obtained:
green foxtail [1] = test: Test Example 5: herbicidal effect by foliage application, plastic box (Table 20, symbol G); assay type: in vivo, green foxtail (Setaria viridis); conditions: foliage application, AAH 320 g/ha, three weeks after application
Method in brief: (§1)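 Foliar spray test: emulsion formulation diluted in water to a set application rate, sprayed onto 14-day-old plants raised in diluvial soil at 25° C to 30° C under glass. Both herbicidal effect and crop effect rated visually three weeks later.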

redroot pigweed [2] = test: Test Example 4: herbicidal effect by soil treatment (Table 19, symbol N); assay type: in vivo, redroot pigweed (Amaranthus retroflexus); conditions: AAH 320 g/ha
Method in brief: (§2)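 Step 1: sow seeds in sterilized diluvial soil, cover ~1.5 cm. Step 2: spray diluted emulsion onto soil surface at predetermined rate. Step 3: greenhouse, 25–30° C, three weeks. Step 4: grade effect on each plant by earlier criteria.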

persian speedwell [3] = test: Test Example 5: herbicidal effect by foliage application, plastic box (Table 20, symbol R); assay type: in vivo, Persian speedwell (Veronica persica); conditions: foliage application, AAH 320 g/ha, three weeks after application
Method in brief: as §1

wild oat [4] = test: Test Example 4: herbicidal effect by soil treatment (Table 19, symbol I); assay type: in vivo, wild oat (Avena fatua); conditions: AAH 320 g/ha
Method in brief: as §2

velvetleaf [5] = test: Test Example 4: herbicidal effect by soil treatment (Table 19, symbol M); assay type: in vivo, velvetleaf (Abutilon theophrasti); conditions: AAH 320 g/ha
Method in brief: as §2

Chinese sprangletop = test: Test Example 3: herbicidal effect by foliage application, Wagner pot (Table 18, symbol D); assay type: in vivo, chinese sprangletop (Leptochloa chinensis); conditions: 320 g/ha
Method in brief: (§3)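 Plants were sown in alluvial soil held under 0.1–0.5 cm standing water and grown 14 days in a greenhouse at 25–30 °C. An emulsifiable formulation, water-diluted to the set dose, was then sprayed onto the foliage, and effects were scored three weeks later using previously defined criteria.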

green foxtail [6] = test: Test Example 4: herbicidal effect by soil treatment (Table 19, symbol G); assay type: in vivo, green foxtail (Setaria viridis); conditions: AAH 320 g/ha
Method in brief: as §2

persian speedwell [7] = test: Test Example 4: herbicidal effect by soil treatment (Table 19, symbol R); assay type: in vivo, Persian speedwell (Veronica persica); conditions: AAH 320 g/ha
Method in brief: as §2

wild oat [8] = test: Test Example 5: herbicidal effect by foliage application, plastic box (Table 20, symbol I); assay type: in vivo, wild oat (Avena fatua); conditions: foliage application, AAH 320 g/ha, three weeks after application
Method in brief: as §1

blackgrass [9] = test: Test Example 5: herbicidal effect by foliage application, plastic box (Table 20, symbol J); assay type: in vivo, blackgrass (Alopecurus myosuroides); conditions: foliage application, AAH 320 g/ha, three weeks after application
Method in brief: as §1

Italian ryegrass [10] = test: Test Example 4: herbicidal effect by soil treatment (Table 19, symbol K); assay type: in vivo, Italian ryegrass (Lolium multiflorum); conditions: AAH 320 g/ha
Method in brief: as §2

blackgrass [11] = test: Test Example 4: herbicidal effect by soil treatment (Table 19, symbol J); assay type: in vivo, blackgrass (Alopecurus myosuroides); conditions: AAH 320 g/ha
Method in brief: as §2

velvetleaf [12] = test: Test Example 5: herbicidal effect by foliage application, plastic box (Table 20, symbol M); assay type: in vivo, velvetleaf (Abutilon theophrasti); conditions: foliage application, AAH 320 g/ha, three weeks after application
Method in brief: as §1

windgrass [13] = test: Test Example 4: herbicidal effect by soil treatment (Table 19, symbol L); assay type: in vivo, windgrass (Apera spica-venti); conditions: AAH 320 g/ha
Method in brief: as §2

southern crabgrass [14] = test: Test Example 5: herbicidal effect by foliage application, plastic box (Table 20, symbol F); assay type: in vivo, southern crabgrass (Digitaria ciliaris); conditions: foliage application, AAH 320 g/ha, three weeks after application
Method in brief: as §1

lambsquarters [15] = test: Test Example 4: herbicidal effect by soil treatment (Table 19, symbol O); assay type: in vivo, lambsquarters (Chenopodium album); conditions: AAH 320 g/ha
Method in brief: as §2

lambsquarters [16] = test: Test Example 5: herbicidal effect by foliage application, plastic box (Table 20, symbol O); assay type: in vivo, lambsquarters (Chenopodium album); conditions: foliage application, AAH 320 g/ha, three weeks after application
Method in brief: as §1

chickweed [17] = test: Test Example 4: herbicidal effect by soil treatment (Table 19, symbol P); assay type: in vivo, common chickweed (Stellaria media); conditions: AAH 320 g/ha
Method in brief: as §2

rice flat sedge = test: Test Example 3: herbicidal effect by foliage application, Wagner pot (Table 18, symbol E); assay type: in vivo, rice flat sedge (Cyperus iria); conditions: 320 g/ha
Method in brief: as §3

barnyard grass [18] = test: Test Example 3: herbicidal effect by foliage application, Wagner pot (Table 18, symbol H); assay type: in vivo, barnyard grass (Echinochloa crus-galli); conditions: 320 g/ha
Method in brief: as §3

barnyard grass [19] = test: Test Example 4: herbicidal effect by soil treatment (Table 19, symbol H); assay type: in vivo, barnyard grass (Echinochloa crus-galli); conditions: AAH 320 g/ha
Method in brief: as §2

barnyard grass [20] = test: Test Example 5: herbicidal effect by foliage application, plastic box (Table 20, symbol H); assay type: in vivo, barnyard grass (Echinochloa crus-galli); conditions: foliage application, AAH 320 g/ha, three weeks after application
Method in brief: as §1

southern crabgrass [21] = test: Test Example 4: herbicidal effect by soil treatment (Table 19, symbol F); assay type: in vivo, southern crabgrass (Digitaria ciliaris); conditions: AAH 320 g/ha
Method in brief: as §2

windgrass [22] = test: Test Example 5: herbicidal effect by foliage application, plastic box (Table 20, symbol L); assay type: in vivo, windgrass (Apera spica-venti); conditions: foliage application, AAH 320 g/ha, three weeks after application
Method in brief: as §1

redroot pigweed [23] = test: Test Example 5: herbicidal effect by foliage application, plastic box (Table 20, symbol N); assay type: in vivo, redroot pigweed (Amaranthus retroflexus); conditions: foliage application, AAH 320 g/ha, three weeks after application
Method in brief: as §1

chickweed [24] = test: Test Example 5: herbicidal effect by foliage application, plastic box (Table 20, symbol P); assay type: in vivo, common chickweed (Stellaria media); conditions: foliage application, AAH 320 g/ha, three weeks after application
Method in brief: as §1

Italian ryegrass [25] = test: Test Example 5: herbicidal effect by foliage application, plastic box (Table 20, symbol K); assay type: in vivo, Italian ryegrass (Lolium multiflorum); conditions: foliage application, AAH 320 g/ha, three weeks after application
Method in brief: as §1

false cleavers = test: Test Example 4: herbicidal effect by soil treatment (Table 19, symbol Q); assay type: in vivo, false cleavers (Galium spurium); conditions: AAH 320 g/ha
Method in brief: as §2

CCCC(=O)Oc1c(OC)nn(C)c(=O)c1-c1c(-c2ccc([N+](=O)[O-])cc2)sc2ccccc12 [1-169]
G: green foxtail, herbicidal effect (green foxtail [1]): 0 (Herbicidal rate of 5% or less (almost no effect))
N: redroot pigweed, herbicidal effect rating (redroot pigweed [2]): 0 (Herbicidal rate of 5% or less (almost no effect))
R: persian speedwell, herbicidal effect (persian speedwell [3]): 4 (Herbicidal rate of 70% or more and less than 90%)
I: wild oat, herbicidal effect rating (wild oat [4]): 0 (Herbicidal rate of 5% or less (almost no effect))
M: velvetleaf, herbicidal effect rating (velvetleaf [5]): 0 (Herbicidal rate of 5% or less (almost no effect))
herbicidal effect on D (Chinese sprangletop), rating 0-5 (Chinese sprangletop): 0 (Herbicidal rate of 5% or less (almost no effect))
G: green foxtail, herbicidal effect rating (green foxtail [6]): 0 (Herbicidal rate of 5% or less (almost no effect))
R: persian speedwell, herbicidal effect rating (persian speedwell [7]): 3 (Herbicidal rate of 40% or more and less than 70%)
I: wild oat, herbicidal effect (wild oat [8]): 0 (Herbicidal rate of 5% or less (almost no effect))
J: blackgrass, herbicidal effect (blackgrass [9]): 0 (Herbicidal rate of 5% or less (almost no effect))
K: Italian ryegrass, herbicidal effect rating (Italian ryegrass [10]): 0 (Herbicidal rate of 5% or less (almost no effect))
J: blackgrass, herbicidal effect rating (blackgrass [11]): 0 (Herbicidal rate of 5% or less (almost no effect))
M: velvetleaf, herbicidal effect (velvetleaf [12]): 0 (Herbicidal rate of 5% or less (almost no effect))
L: windgrass, herbicidal effect rating (windgrass [13]): 0 (Herbicidal rate of 5% or less (almost no effect))
F: southern crabgrass, herbicidal effect (southern crabgrass [14]): 0 (Herbicidal rate of 5% or less (almost no effect))
O: lambsquarters, herbicidal effect rating (lambsquarters [15]): 0 (Herbicidal rate of 5% or less (almost no effect))
O: lambsquarters, herbicidal effect (lambsquarters [16]): 4 (Herbicidal rate of 70% or more and less than 90%)
P: chickweed, herbicidal effect rating (chickweed [17]): 1 (Herbicidal rate of 5% or more and less than 20%)
herbicidal effect on E (rice flat sedge), rating 0-5 (rice flat sedge): 2 (Herbicidal rate of 20% or more and less than 40%)
herbicidal effect on H (barnyard grass), rating 0-5 (barnyard grass [18]): 1 (Herbicidal rate of 5% or more and less than 20%)
H: barnyard grass, herbicidal effect rating (barnyard grass [19]): 0 (Herbicidal rate of 5% or less (almost no effect))
H: barnyard grass, herbicidal effect (barnyard grass [20]): 0 (Herbicidal rate of 5% or less (almost no effect))
F: southern crabgrass, herbicidal effect rating (southern crabgrass [21]): 0 (Herbicidal rate of 5% or less (almost no effect))
L: windgrass, herbicidal effect (windgrass [22]): 0 (Herbicidal rate of 5% or less (almost no effect))
N: redroot pigweed, herbicidal effect (redroot pigweed [23]): 4 (Herbicidal rate of 70% or more and less than 90%)
P: chickweed, herbicidal effect (chickweed [24]): 4 (Herbicidal rate of 70% or more and less than 90%)
K: Italian ryegrass, herbicidal effect (Italian ryegrass [25]): 0 (Herbicidal rate of 5% or less (almost no effect))
Q: false cleavers, herbicidal effect rating (false cleavers): 0 (Herbicidal rate of 5% or less (almost no effect))
